Test results published in patent publication US20100178316A1, “EXTENDED RELEASE OF BIOACTIVE MOLECULES FROM SILICONE HYDROGELS” (priority 2007, published 2010).

What was measured:
Assay type in all cases: physicochemical
[1] = Drug release experiments from ethanol-loaded silicone hydrogel pieces soaked in PBS; settings: GEL1 to GEL4, 0.1-0.4 mm thick, loaded from 0.64 or 6.4 mg/mL ethanol solution
Procedure: Drugs were individually loaded into individual square pieces of the gels by soaking a gel in 2 or 2.5 mL of a drug-ethanol solution for a period of 3 hours. At the end of three hours the gel was taken out and excess drug-ethanol solution was blotted from the surface of the piece with wipes. The gels were dried in air overnight, and subsequently used for drug release experiments. Results of drug release experiment are given below for three drugs (dexamethasone (DX), dexamethasone acetate (DXA) and timolol) which were individually loaded into different gel pieces.
Drug release experiments were conducted by soaking the square shaped drug containing gel pieces, prepared as described in Example 1, in Dulbecco's phosphate buffered saline (PBS). The volume of the PBS was varied depending on the thickness of the gel to maintain a constant volume ratio of gel to PBS for all samples. The gels of 0.1 mm, 0.2 mm, and 0.4 mm thickness were soaked in 1.5 mL, 3 mL, 6 mL of PBS, respectively.
In like manner to Examples 1, 2 and 3, timolol release experiments were conducted with square pieces of the gels of three different thicknesses for the four different compositions prepared in Example 1 (GEL1 to GEL4), with two different drug loadings by varying the concentration of the drug-ethanol solution used. […]

[2] = Packaging test: drug lost from drug-loaded silicone hydrogel to PBS packaging solution; settings: 0.1 mm thick GEL1, 1.75 cm diameter, loaded from drug-ethanol solution
Procedure: (§1) Commercial contact lenses are typically packaged in about 1-1.5 ml of packaging solution such as PBS. To estimate the effects of packaging on drug release behavior of silicone hydrogel appliances, packaging tests were conducted. A 0.1 mm thick silicone hydrogel was cut into circular pieces of 1.75 cm diameter and a drug was loaded by soaking the silicone hydrogel in a drug-ethanol solution. A 0.1 mm thick piece of GEL1 was loaded with a drug by soaking in drug-ethanol solution of 6.4 mg/ml for timolol and 4.8 mg/ml for DXA. The GEL1 pieces were then blotted with wipes to remove excess drug-ethanol solution from the pieces. The pieces were dried in air overnight before conducting the packaging tests. The silicone hydrogels were then stored in 1 ml of PBS (packaging) solution in a sealed vials for 1.3 or 2 months, and subsequently the appliance was placed in 2 ml of fresh PBS solution. The release of the drug over time is plotted in FIG. 17 and FIG. 18 for timolol and DXA, respectively. For timolol, about 364 μg and 404 μg of drug were lost to the packaging solution for the appliance stored for 1.3 months and 2 months, respectively. The residual drug released into the fresh PBS solution at an average rate of 0.09 mg/(g of gel·day) for 20 days, and then at a lower rate for another 2 months as shown in FIG. 17. […]

[3] = Drug release into fresh PBS solution after packaging storage; settings: 2 ml fresh PBS
Procedure: as §1

initial burst release (in words) [1]: initial burst is small in each system | drug lost to the packaging solution ([2]; stored in 1 ml PBS for 1.3 months): about 364 μg | drug lost to the packaging solution ([2]; stored in 1 ml PBS for 2 months): ~404 µg | further release at a lower rate, duration ([3]; 0.1 mm thick GEL1 after packaging, after the first 20 days): 2 months | average release rate of residual drug into fresh PBS solution ([3]; 0.1 mm thick GEL1 loaded from 6.4 mg/ml ethanol solution, after packaging, for 20 days): 0.09 mg/(g of gel·day)
SMILES: CC(C)(C)NC[C@H](O)COc1nsnc1N1CCOCC1 [timolol]
release behaviour from gels into PBS (in words) [1]: all gels release timolol over a long period of time
